# Test results taken from PMC10382584, “Macrocyclization of linear molecules by deep learning to facilitate macrocyclic drug candidates discovery” (Nature Communications, 2023).
# Key:
# Experiment in all cases: biochemical
# Design in all cases: DiscoveRx KINOMEscan competition binding, percent of DMSO control signal at 100 nM
# Settings in all cases: read-out: Fig. 4a / Percent Control / Compound 1; percent of DMSO control, competition binding
# WNK4 = WNK4 (Homo sapiens, UniProt Q96J92)
# KIT(L576P) = KIT(L576P) (Homo sapiens, UniProt P10721, L576P)
# ACVR2A = ACVR2A (Homo sapiens, UniProt P27037)
# GAK = GAK (Homo sapiens, UniProt O14976)
# Chain of GAK (O14976 whole entry): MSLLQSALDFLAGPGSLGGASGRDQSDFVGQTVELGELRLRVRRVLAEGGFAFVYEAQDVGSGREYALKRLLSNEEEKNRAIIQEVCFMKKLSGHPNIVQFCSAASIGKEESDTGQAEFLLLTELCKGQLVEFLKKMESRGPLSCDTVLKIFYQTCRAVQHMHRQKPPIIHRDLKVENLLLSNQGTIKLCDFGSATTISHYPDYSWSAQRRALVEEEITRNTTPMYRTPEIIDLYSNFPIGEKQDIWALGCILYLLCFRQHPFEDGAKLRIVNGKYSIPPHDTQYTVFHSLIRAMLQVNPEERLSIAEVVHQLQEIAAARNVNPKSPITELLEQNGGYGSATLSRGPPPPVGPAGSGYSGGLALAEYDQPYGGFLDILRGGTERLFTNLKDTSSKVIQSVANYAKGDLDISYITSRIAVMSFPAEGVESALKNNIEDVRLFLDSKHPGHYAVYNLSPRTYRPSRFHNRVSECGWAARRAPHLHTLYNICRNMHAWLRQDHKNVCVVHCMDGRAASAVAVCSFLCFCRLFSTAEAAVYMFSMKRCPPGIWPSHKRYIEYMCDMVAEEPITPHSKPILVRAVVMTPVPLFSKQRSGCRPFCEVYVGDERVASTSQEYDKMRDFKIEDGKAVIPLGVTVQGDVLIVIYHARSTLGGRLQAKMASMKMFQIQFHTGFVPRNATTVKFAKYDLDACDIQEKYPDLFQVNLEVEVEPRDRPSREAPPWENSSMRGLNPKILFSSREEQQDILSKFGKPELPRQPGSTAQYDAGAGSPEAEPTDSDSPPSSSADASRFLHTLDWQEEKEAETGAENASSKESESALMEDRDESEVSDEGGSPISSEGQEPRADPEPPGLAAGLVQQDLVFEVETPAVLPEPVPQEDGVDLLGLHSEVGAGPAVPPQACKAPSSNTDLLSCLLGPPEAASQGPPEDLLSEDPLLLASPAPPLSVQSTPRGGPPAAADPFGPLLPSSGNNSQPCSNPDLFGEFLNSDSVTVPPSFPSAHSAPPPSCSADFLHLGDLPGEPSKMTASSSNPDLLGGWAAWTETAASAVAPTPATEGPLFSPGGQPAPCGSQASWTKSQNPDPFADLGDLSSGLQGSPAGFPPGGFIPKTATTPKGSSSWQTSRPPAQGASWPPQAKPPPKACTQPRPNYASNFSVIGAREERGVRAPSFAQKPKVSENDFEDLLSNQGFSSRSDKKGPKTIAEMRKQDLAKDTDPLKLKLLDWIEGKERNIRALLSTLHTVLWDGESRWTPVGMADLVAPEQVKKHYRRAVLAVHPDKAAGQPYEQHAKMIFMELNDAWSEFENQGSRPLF
# [1] = target: T1, ABL1(E255K)-phosphorylated (Homo sapiens, UniProt P00519, E255K)
# T1 construct: phosphorylated
# EGFR(L858R) = EGFR(L858R) (Homo sapiens, UniProt P00533, L858R)
# Chain of EGFR(L858R) (P00533 whole entry L858R): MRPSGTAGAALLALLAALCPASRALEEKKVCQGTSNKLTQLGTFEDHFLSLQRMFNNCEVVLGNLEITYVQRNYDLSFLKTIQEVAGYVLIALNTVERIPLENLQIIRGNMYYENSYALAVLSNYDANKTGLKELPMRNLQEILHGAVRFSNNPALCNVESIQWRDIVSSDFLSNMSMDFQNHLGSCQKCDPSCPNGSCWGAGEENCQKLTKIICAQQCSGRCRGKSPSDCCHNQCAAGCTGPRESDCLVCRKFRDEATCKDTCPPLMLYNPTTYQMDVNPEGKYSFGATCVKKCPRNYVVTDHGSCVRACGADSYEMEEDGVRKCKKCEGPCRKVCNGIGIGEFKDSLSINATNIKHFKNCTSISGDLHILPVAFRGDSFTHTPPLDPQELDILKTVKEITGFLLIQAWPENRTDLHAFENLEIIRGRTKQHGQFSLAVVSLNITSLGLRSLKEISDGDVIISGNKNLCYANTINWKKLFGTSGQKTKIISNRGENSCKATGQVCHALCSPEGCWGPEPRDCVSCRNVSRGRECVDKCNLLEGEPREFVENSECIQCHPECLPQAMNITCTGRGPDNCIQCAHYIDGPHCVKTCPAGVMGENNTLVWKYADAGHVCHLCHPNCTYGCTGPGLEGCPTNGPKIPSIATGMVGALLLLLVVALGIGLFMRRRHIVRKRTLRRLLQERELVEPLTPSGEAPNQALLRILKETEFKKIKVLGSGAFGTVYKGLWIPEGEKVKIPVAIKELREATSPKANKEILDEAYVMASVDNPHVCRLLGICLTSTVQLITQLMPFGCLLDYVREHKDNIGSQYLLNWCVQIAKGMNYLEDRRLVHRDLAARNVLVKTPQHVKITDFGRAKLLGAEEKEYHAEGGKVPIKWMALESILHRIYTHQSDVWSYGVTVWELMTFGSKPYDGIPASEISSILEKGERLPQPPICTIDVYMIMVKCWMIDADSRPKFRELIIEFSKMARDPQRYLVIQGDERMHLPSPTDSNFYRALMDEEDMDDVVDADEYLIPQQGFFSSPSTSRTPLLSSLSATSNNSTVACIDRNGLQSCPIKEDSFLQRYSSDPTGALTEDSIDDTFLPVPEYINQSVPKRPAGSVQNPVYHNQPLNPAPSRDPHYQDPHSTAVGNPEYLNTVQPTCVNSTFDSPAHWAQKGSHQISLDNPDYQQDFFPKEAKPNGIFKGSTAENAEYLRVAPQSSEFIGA
# CDK3 = CDK3 (Homo sapiens, UniProt Q00526)
# Chain of CDK3 (Q00526 whole entry): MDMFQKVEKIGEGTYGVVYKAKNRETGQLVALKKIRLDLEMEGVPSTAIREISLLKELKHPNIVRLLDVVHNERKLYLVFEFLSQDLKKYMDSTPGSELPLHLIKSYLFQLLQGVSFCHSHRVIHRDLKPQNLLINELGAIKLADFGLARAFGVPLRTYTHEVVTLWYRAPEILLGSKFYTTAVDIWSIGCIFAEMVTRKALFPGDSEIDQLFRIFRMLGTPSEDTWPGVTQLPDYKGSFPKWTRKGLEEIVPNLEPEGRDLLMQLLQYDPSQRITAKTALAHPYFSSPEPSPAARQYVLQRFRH
# IRAK4 = IRAK4 (Homo sapiens, UniProt Q9NWZ3)
# CSNK1D = CSNK1D (Homo sapiens, UniProt P48730)
# ULK3 = ULK3 (Homo sapiens, UniProt Q6PHR2)
# JNK1 = target: T2, JNK1 (Homo sapiens, UniProt P45983)
# T2 construct: gene MAPK8
# ALK = ALK (Homo sapiens, UniProt Q9UM73)
# Chain of ALK (Q9UM73 whole entry): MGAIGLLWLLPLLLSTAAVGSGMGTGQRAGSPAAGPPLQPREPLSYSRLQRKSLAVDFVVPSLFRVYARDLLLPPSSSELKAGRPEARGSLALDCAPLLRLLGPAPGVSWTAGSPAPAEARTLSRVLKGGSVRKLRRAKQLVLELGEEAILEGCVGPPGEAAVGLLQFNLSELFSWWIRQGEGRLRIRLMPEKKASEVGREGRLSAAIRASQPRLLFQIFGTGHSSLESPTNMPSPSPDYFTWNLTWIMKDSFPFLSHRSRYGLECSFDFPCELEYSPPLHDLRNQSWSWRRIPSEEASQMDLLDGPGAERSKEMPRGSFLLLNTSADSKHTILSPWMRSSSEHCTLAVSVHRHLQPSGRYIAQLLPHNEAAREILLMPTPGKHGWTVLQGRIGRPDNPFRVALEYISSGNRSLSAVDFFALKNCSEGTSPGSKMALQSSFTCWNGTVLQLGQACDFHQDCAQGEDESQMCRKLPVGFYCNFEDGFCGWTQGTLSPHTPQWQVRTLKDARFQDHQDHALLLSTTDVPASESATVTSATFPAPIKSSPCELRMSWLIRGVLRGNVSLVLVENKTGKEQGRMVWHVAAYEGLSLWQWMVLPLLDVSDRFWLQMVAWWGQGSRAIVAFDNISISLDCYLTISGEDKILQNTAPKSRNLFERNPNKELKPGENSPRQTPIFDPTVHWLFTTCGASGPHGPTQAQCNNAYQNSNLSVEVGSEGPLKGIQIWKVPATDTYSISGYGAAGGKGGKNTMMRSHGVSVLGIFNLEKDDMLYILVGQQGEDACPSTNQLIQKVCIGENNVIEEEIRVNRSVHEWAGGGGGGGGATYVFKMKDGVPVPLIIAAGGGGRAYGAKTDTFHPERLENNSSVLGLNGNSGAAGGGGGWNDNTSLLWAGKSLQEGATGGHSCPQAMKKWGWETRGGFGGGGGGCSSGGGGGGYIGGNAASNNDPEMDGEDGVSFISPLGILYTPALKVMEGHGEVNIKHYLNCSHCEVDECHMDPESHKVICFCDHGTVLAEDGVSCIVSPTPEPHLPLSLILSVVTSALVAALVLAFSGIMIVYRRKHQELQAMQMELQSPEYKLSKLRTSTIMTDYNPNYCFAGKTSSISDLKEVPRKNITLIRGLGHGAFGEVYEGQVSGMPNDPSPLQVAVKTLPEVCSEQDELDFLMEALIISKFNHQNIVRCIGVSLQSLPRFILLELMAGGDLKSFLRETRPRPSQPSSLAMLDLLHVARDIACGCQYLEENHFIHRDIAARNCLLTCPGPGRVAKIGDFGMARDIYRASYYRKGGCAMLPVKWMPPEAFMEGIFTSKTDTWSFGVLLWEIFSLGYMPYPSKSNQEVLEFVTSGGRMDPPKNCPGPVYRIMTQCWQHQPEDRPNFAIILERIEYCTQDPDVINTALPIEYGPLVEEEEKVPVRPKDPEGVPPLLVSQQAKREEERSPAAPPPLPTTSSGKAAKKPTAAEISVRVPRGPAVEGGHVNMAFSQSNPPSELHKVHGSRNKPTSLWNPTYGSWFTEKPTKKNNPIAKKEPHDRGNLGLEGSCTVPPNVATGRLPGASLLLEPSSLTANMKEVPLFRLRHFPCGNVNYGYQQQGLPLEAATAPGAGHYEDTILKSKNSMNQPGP
# BRK = target: T3, BRK (Homo sapiens, UniProt Q13882)
# T3 construct: gene PTK6
# RIOK2 = RIOK2 (Homo sapiens, UniProt Q9BVS4)
# SNARK = target: T4, SNARK (Homo sapiens, UniProt Q9H093)
# T4 construct: gene NUAK2
# [2] = target: T5, ABL1(Y253F)-phosphorylated (Homo sapiens, UniProt P00519, Y253F)
# T5 construct: phosphorylated
# PIK3C2G = PIK3C2G (Homo sapiens, UniProt O75747)
# NIK = target: T6, NIK (Homo sapiens, UniProt Q99558)
# T6 construct: gene MAP3K14
# MYLK4 = MYLK4 (Homo sapiens, UniProt Q86YV6)
# AMPK-alpha1 = target: T7, AMPK-alpha1 (Homo sapiens, UniProt Q13131)
# T7 construct: gene PRKAA1
# T7 sequence (Q13131 whole entry): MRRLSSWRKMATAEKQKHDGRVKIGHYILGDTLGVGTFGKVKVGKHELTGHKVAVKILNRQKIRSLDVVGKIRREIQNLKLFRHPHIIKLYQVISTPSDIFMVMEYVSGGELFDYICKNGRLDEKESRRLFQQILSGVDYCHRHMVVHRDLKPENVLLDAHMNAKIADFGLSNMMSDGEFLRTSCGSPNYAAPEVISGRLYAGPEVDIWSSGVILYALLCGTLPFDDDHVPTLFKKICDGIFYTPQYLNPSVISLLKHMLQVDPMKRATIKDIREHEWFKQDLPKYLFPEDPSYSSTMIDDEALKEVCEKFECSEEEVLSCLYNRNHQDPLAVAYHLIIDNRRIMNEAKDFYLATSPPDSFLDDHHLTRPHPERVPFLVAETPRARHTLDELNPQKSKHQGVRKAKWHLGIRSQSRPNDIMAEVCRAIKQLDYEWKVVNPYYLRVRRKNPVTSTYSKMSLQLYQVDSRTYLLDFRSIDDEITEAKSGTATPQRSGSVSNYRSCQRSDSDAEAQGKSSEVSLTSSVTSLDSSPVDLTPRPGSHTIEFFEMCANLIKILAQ
# PCTK3 = target: T8, PCTK3 (Homo sapiens, UniProt Q07002)
# T8 construct: gene CDK18
# KIT(A829P) = KIT(A829P) (Homo sapiens, UniProt P10721, A829P)
# YSK1 = target: T9, YSK1 (Homo sapiens, UniProt O00506)
# T9 construct: gene STK25
# MYO3B = MYO3B (Homo sapiens, UniProt Q8WXR4)
# GSK3B = GSK3B (Homo sapiens, UniProt P49841)
# 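Further: KINOMEscan kinase panel binding assay, signal normalized between DMSO as 100% and a positive control compound as 0%.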
smiles,measurement,setting,value
Cc1cnc2nc1Nc1cccc(c1)COCc1cc(ccc1OCCN1CCCC1)N2 [Compound 1],remaining binding at 0.1 µM,WNK4,48%
same,remaining binding at 0.1 µM,KIT(L576P),14%
same,remaining binding at 0.1 µM,ACVR2A,99%
same,remaining binding at 0.1 µM,GAK,36%
same,remaining binding at 0.1 µM,[1],79%
same,remaining binding at 0.1 µM,EGFR(L858R),73%
same,remaining binding at 0.1 µM,CDK3,91%
same,remaining binding at 0.1 µM,IRAK4,72%
same,remaining binding at 0.1 µM,CSNK1D,100%
same,remaining binding at 0.1 µM,ULK3,85%
same,remaining binding at 0.1 µM,JNK1,50%
same,remaining binding at 0.1 µM,ALK,79%
same,remaining binding at 0.1 µM,BRK,98%
same,remaining binding at 0.1 µM,RIOK2,84%
same,remaining binding at 0.1 µM,SNARK,36%
same,remaining binding at 0.1 µM,[2],64%
same,remaining binding at 0.1 µM,PIK3C2G,80%
same,remaining binding at 0.1 µM,NIK,74%
same,remaining binding at 0.1 µM,MYLK4,84%
same,remaining binding at 0.1 µM,AMPK-alpha1,100%
same,remaining binding at 0.1 µM,PCTK3,85%
same,remaining binding at 0.1 µM,KIT(A829P),45%
same,remaining binding at 0.1 µM,YSK1,91%
same,remaining binding at 0.1 µM,MYO3B,99%
same,remaining binding at 0.1 µM,GSK3B,84%
